Experimental data: patent publication US9757399B2, “Butyrylcholinesterase inhibitors” (priority 2006, dated 2017)

How the values were obtained:
S6K2 = S6K2 (Homo sapiens, UniProt Q9UBS0); assay: S6K2 activity (GST-S6 substrate, Pro-Q stain); format: biochemical; settings: varying concentrations, 30 minutes on ice, then ATP 30° C. 15 minutes
Protocol: (§1) For protein kinase activity, histone was used as the substrate for protein kinase A (PKA) and glutathione-S-transferase-S6 (GST-S6) for S6K2. Enzyme was pre-incubated with substrate and varying concentrations of inhibitor on ice for 30 minutes. The control sample contained solvent (methanol). ATP was then added to each sample and the cocktail incubated at 30° C. for 15 minutes. Equal amounts of each mixture were fractionated by SDS-PAGE on a 10% acrylamide gel. The gel was fixed in 50% methanol/10% acetic acid, washed with water, and then stained in Pro-Q Stain in the dark for 60 minutes. The gel was then destained, washed, and scanned on a Typhoon Imager (FIG. 5).

Protein Kinase A (PKA) = assay: Protein kinase A activity (histone substrate, Pro-Q stain); format: biochemical; settings: varying concentrations, 30 minutes on ice, then ATP 30° C. 15 minutes
Protocol: as §1

butyrylcholinesterase = target: T1, butyrylcholinesterase (Equus caballus, UniProt P81908); assay: Reactivation of inactive butyrylcholinesterase; format: biochemical, horse
T1 construct: butyrylcholinesterase (from horse serum); purchased Sigma; host or cells: horse serum (natural source)
T1 sequence (P81908 whole entry): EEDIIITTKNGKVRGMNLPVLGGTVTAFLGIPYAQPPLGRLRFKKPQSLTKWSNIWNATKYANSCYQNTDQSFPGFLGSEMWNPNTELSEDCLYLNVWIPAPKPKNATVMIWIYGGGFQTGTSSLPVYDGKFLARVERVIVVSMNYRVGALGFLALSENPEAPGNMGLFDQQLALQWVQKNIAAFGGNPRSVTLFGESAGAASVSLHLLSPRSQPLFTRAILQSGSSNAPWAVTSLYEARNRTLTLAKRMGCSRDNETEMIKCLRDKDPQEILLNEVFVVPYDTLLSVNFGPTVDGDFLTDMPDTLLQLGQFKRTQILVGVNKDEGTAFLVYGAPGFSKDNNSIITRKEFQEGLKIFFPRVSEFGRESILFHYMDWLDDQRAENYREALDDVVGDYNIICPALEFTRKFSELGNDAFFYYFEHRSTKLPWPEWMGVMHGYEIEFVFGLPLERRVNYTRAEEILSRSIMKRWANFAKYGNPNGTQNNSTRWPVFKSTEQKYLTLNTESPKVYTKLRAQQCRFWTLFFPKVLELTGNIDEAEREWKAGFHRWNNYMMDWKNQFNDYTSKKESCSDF
Protocol: BuChase was incubated with excess di-butyl 2-chlorophenyl phosphate for 60 min at 4° C. The excess phosphate was removed using a desalting column. The inactivated BuChase was incubated at 4° C. for various periods of time and then assayed for activity. […]

hexokinase = assay: Hexokinase activity (NADPH generation); format: biochemical; settings: 10 μM, 60 min at 25° C.
Protocol: The effect of DB2ClPP on hexokinase activity was assayed. Hexokinase was incubated with solvent, 10 mM iodoacetamide (a known hexokinase inhibitor), or 10 μM DB2CPP for 60 min at 25° C. Enzyme activity is given as the nmoles of NADPH generated per min at 25° C. Data shown are the mean of three replicates ±SEM. (FIG. 6)

[1] = target: T2, butyrylcholinesterase (from horse serum) (Equus caballus, UniProt P81908); assay: Rates of inactivation of butyrylcholinesterase, Ellman assay; format: biochemical; settings: 100 nM inhibitor, 25° C.
T2 construct: butyrylcholinesterase (from horse serum); purchased Sigma; host or cells: horse serum (natural source)
T2 sequence (P81908 whole entry): as above
Protocol: Acetylcholinesterase (from electric eel), butyrylcholinesterase (from horse serum), DTNB, butyrylthiocholine, acetylthiocholine, and BSA were purchased from Sigma. The dialkyl 2-chlorophenyl (and 4-chlorophenyl) phosphates were solubilized in reagent grade methanol.
Cholinesterase activity measurements were performed essentially according to the method of Ellman (Biochemical Pharmacology 7:88-90, 1961). The composition of the assay mixture was 0.1 M sodium phosphate, pH 7.5, 0.033 M DTNB, 0.001 M MgCl2, and 100 μg/mL of BSA containing appropriate amounts of substrate and inhibitor. Each assay was initiated by the addition of substrate and the activity quantified by measuring the formation of the thionitrobenzoate anion at 412 nm at 37° C. Methanol used to solubilize the dialkyl phenyl phosphates [1% (v/v) final concentration] had no inhibitory effect on either enzyme.
Butyrylcholinesterase was pre-incubated at room temperature with inhibitor in the assay cocktail minus substrate for varying periods of time at 25° C. Substrate was then added and the activity measured as described above. The relative rates of enzyme inactivation were determined by plotting enzyme activity versus time of pre-incubation with inhibitor. Results were expressed as the rate constant for the rate of enzyme inactivation. In the case of AcChase, results were expressed as the % of activity remaining relative to the enzyme incubated only with solvents.
. […] In Table 2, BuChase was incubated for increasing periods of time at 25° C. with 100 nM inhibitor then assayed for activity as described above. Rate constants were calculated from a plot of enzyme activity vs. time of inhibitor exposure. […]. Slopes were calculated by linear regression analysis.

Chain of S6K2 (Q9UBS0 whole entry, looked up): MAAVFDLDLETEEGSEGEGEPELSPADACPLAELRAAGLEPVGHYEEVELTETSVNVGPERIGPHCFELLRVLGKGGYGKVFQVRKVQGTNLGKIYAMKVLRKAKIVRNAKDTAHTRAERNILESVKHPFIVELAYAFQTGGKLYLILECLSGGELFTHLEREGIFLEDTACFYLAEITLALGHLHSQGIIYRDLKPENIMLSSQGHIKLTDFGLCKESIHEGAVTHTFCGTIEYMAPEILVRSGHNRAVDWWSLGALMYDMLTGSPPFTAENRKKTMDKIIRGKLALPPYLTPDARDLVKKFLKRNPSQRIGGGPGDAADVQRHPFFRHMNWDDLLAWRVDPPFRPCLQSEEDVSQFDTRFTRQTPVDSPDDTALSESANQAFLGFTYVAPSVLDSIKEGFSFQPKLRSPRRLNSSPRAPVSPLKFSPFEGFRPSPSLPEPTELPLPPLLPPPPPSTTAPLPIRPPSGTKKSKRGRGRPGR

CCCCOP(=O)(OCCCC)Oc1ccccc1Cl [DB2ClPP, Di-n-butyl 2-chlorophenyl phosphate]
effect on S6K2 activity (FIG. 5) (S6K2): none of the above mentioned enzymes were affected | effect on PKA activity (FIG. 5) (Protein Kinase A (PKA)): none of the above mentioned enzymes were affected | % Remaining Activity (butyrylcholinesterase; 0 hours at 4° C. after removal of excess inhibitor): 0.6% | % Remaining Activity (butyrylcholinesterase; 3.5 hours at 4° C. after removal of excess inhibitor): 0.6% | % Remaining Activity (butyrylcholinesterase; 7 hours at 4° C. after removal of excess inhibitor): 0.8% | % Remaining Activity (butyrylcholinesterase; 24 hours at 4° C. after removal of excess inhibitor): 1.1% | reactivation of inactivated BuChase (butyrylcholinesterase; over 24 hours at 4° C.): no significant reactivation | effect on hexokinase activity (FIG. 6) (hexokinase): none of the above mentioned enzymes were affected | k, rate constant of inactivation of butyrylcholinesterase ± S.E.M [1]: 64.76 ± 3.0 min^−1 × 10^−2
